Drawing on US20230133958A1, “COMPOUNDS USEFUL IN MODULATING EGFR AND PI3K” (Mekanistic Therapeutics LLC, priority 2021, published 2023), this text covers GI50 for two compounds.

As a reminder, the GI50 is the concentration giving 50% growth inhibition. A high value points to lower sensitivity of the cells.

What all share (assay type): cell-based
The test system of one assay is BT-549. Description: NCI COMPARE panel (SRB growth inhibition), BT-549. To be noted: Homo sapiens; Breast Cancer, BT-549, 48 h. Here is the method:
(§1) The human tumor cell lines of the cancer screening panel are grown in RPMI 1640 medium containing 5% fetal bovine serum and 2 mM L-glutamine. For a typical screening experiment, cells are inoculated into 96 well microtiter plates in 100 µL at plating densities ranging from 5,000 to 40,000 cells/well depending on the doubling time of individual cell lines. After cell inoculation, the microtiter plates are incubated at 37° C., 5% CO2, 95% air and 100% relative humidity for 24 h prior to addition of experimental drugs.
(§2) After 24 h, two plates of each cell line are fixed in situ with TCA, to represent a measurement of the cell population for each cell line at the time of drug addition (Tz). Experimental drugs are solubilized in dimethyl sulfoxide at 400-fold the desired final maximum test concentration and stored frozen prior to use. […]
(§3) Following drug addition, the plates are incubated for an additional 48 h at 37° C., 5 % CO2, 95% air, and 100% relative humidity. […] Bound stain is subsequently solubilized with 10 mM trizma base, and the absorbance is read on an automated plate reader at a wavelength of 515 nm. […] Using the seven absorbance measurements [time zero, (Tz), control growth, (C), and test growth in the presence of drug at the five concentration levels (Ti)], the percentage growth is calculated at each of the drug concentrations levels. Percentage growth inhibition is calculated as: […]

The subject of the next assay is SF-268. Description: NCI COMPARE panel (SRB growth inhibition), SF-268. To be noted: Homo sapiens; CNS Cancer, SF-268, 48 h. Here is the method:
as §1, §2, §3

For the next assay, the system named is SF-295. Description: NCI COMPARE panel (SRB growth inhibition), SF-295. To be noted: Homo sapiens; CNS Cancer, SF-295, 48 h. Here is the method:
as §1, §2, §3

A further assay relates to SNB-75. Description: NCI COMPARE panel (SRB growth inhibition), SNB-75. Particulars: Homo sapiens; CNS Cancer, SNB-75, 48 h. Here is the method: as §1, §2, §3
For the next assay, the system named is COLO 205. Description: NCI COMPARE panel (SRB growth inhibition), COLO 205. To be noted: Homo sapiens; Colon Cancer, COLO 205, 48 h. Here is the method: as §1, §2, §3
The next assay relates to HCC-2998. Description: NCI COMPARE panel (SRB growth inhibition), HCC-2998. To be noted: Homo sapiens; Colon Cancer, HCC-2998, 48 h. Here is the method:
as §1, §2, §3

The next assay deals with HCT-116. Description: NCI COMPARE panel (SRB growth inhibition), HCT-116. Particulars: Homo sapiens; Colon Cancer, HCT-116, 48 h. Here is the method:
as §1, §2, §3

The next assay relates to CCRF-CEM. Briefly: NCI COMPARE panel (SRB growth inhibition), CCRF-CEM. To be noted: Homo sapiens, Leukemia, 48 h. Here is the method:
as §1, §2, §3

In another assay the test system is M14. Description: NCI COMPARE panel (SRB growth inhibition), M14. Particulars: Homo sapiens; Melanoma, M14, 48 h. Here is the method:
as §1, §2, §3

A further assay has as its system HOP-92. Description: NCI COMPARE panel (SRB growth inhibition), HOP-92. Particulars: Homo sapiens; Non-Small Cell Lung Cancer, HOP-92, 48 h. Here is the method: as §1, §2, §3
In a further assay the test system is NCI-H322M. Briefly: NCI COMPARE panel (SRB growth inhibition), NCI-H322M. To be noted: Homo sapiens, Non-Small Cell Lung Cancer, 48 h. Here is the method: as §1, §2, §3
A further assay deals with OVCAR-5. Description: NCI COMPARE panel (SRB growth inhibition), OVCAR-5. Particulars: Homo sapiens; Ovarian Cancer, OVCAR-5, 48 h. Here is the method:
as §1, §2, §3

For the next assay, the system named is OVCAR-8. Briefly: NCI COMPARE panel (SRB growth inhibition), OVCAR-8. To be noted: Homo sapiens; Ovarian Cancer, OVCAR-8, 48 h. Here is the method:
as §1, §2, §3

The next assay has as its system NCI/ADR-RES. Description: NCI COMPARE panel (SRB growth inhibition), NCI/ADR-RES. To be noted: Homo sapiens, Ovarian Cancer, 48 h. Here is the method:
as §1, §2, §3

The subject of another assay is DU-145. Briefly: NCI COMPARE panel (SRB growth inhibition), DU-145. To be noted: Homo sapiens; Prostate Cancer, DU-145, 48 h. Here is the method:
as §1, §2, §3

The test system of another assay is 786-0. Briefly: NCI COMPARE panel (SRB growth inhibition), 786-0. Particulars: Homo sapiens; Renal Cancer, 786-0, 48 h. Here is the method:
as §1, §2, §3

In a further assay the test system is A498. Description: NCI COMPARE panel (SRB growth inhibition), A498. To be noted: Homo sapiens; Renal Cancer, A498, 48 h. Here is the method:
as §1, §2, §3

Another assay has as its system RXF 393. Description: NCI COMPARE panel (SRB growth inhibition), RXF 393. To be noted: Homo sapiens; Renal Cancer, RXF 393, 48 h. Here is the method: as §1, §2, §3

Take `CS(=O)(=O)Nc1cc(-c2ccc3ncc(C#N)c(Nc4cccc(Cl)c4F)c3c2)cnc1Cl` [Compound 10, N-[2-chloro-5-[4-(3-chloro-2-fluoro-anilino)-3-cyano-6-quinolyl]-3-pyridyl]methanesulfonamide]: the concentration for 50% growth inhibition (GI50) in the assay with BT-549 is ≤ 75 nM; in the assay on SF-268, 75 to 125 nM; in the assay on SF-295, 125 to 250 nM; in the assay on SNB-75, ≤ 75 nM; in the assay on COLO 205 it was 125 to 250 nM; in the assay on HCC-2998, > 250 nM. For the same compound, the GI50 in the assay on HCT-116 was ≤ 75 nM; with CCRF-CEM it was ≤ 75 nM; with M14, > 250 nM; in the assay on HOP-92 it was ≤ 75 nM; in the assay on NCI-H322M it was > 250 nM; in the assay with OVCAR-5, > 250 nM. Also, the GI50 in the assay on OVCAR-8 is > 250 nM; in the assay on NCI/ADR-RES, > 250 nM; in the assay on DU-145, 125 to 250 nM; in the assay on 786-0, > 250 nM; in the assay on A498 it was ≤ 75 nM; in the assay on RXF 393 it was ≤ 75 nM.
`CS(=O)(=O)Nc1cc(-c2ccc3ncnc(Nc4cccc(Cl)c4F)c3c2)cnc1Cl` [Compound 6, N-[2-chloro-5-[4-(3-chloro-2-fluoro-anilino)quinazolin-6-yl]-3-pyridyl] methanesulfonamide]: the GI50 in the assay on BT-549 is 75 to 125 nM; with SF-268, 125 to 250 nM; in the assay on SF-295 it was 125 to 250 nM; in the assay with SNB-75, ≤ 75 nM; in the assay with COLO 205, 125 to 250 nM; in the assay with HCC-2998, 125 to 250 nM. Besides, the concentration for 50% growth inhibition (GI50) with HCT-116 was 125 to 250 nM; in the assay with CCRF-CEM, 125 to 250 nM; in the assay with M14, 125 to 250 nM; in the assay with HOP-92 it was ≤ 75 nM; in the assay on NCI-H322M, 125 to 250 nM; in the assay on OVCAR-5, 125 to 250 nM. The GI50 in the assay with OVCAR-8 was > 250 nM; in the assay on NCI/ADR-RES it was > 250 nM; in the assay on DU-145, 125 to 250 nM; in the assay with 786-0, 125 to 250 nM; in the assay with A498 it was ≤ 75 nM; in the assay on RXF 393, 75 to 125 nM.
